# Where two headings read alike, the source gives them in different places. *1 amine or outer side, *2 acyl side, *3 side chain or, on linkers, in order; H or OH if unused. Where a SMILES comes first, the peptide text is derived from it. Bridges are numbered along the chain shown (N, C = ends). [ ]: non-standard residue; d: D form. The star is where a group is joined. hTyr(3S-OH,4S-OH,3'-OSO3H) = N[C@H](C(=O)O)[C@H](O)[C@@H](O)c1ccc(O)c(OS(=O)(=O)O)c1; Orn(4R-OH,5R-OH) = O=C([C@H](C[C@@H](O)[C@@H](O)N[*:3])N[*:1])[*:2]; Pro(3S-OH,4S-Me) = C[C@H]1CN[C@H](C(=O)O)[C@H]1O; X1 = CCCCCOc1ccc(-c2cc(-c3ccc(C(=O)*)cc3)no2)cc1; Gln(3R-OH) = NC(=O)C[C@@H](O)[C@H](N)C(=O)O; Hyp = O=C(O)[C@@H]1C[C@@H](O)CN1
# Columns and labels:
# [1] = Micafungin plasma pharmacokinetics in adult patients treated with ECMO (samples before and after the oxygenation membrane); assay type: in vivo, human; settings: for clearance / Vd / Cmax / AUC: human
# Procedure: (§1) We conducted an observational, prospective, noninterventional and nondrug-linked study of the PKs and safety of micafungin in adult patients treated with ECMO in two Spanish hospitals: the intensive care unit (ICU) of the Hospital Universitario Marqués de Valdecilla, Santander, and the Anaesthesiology and Reanimation Department of the Hospital Universitario La Fe, Valencia, Spain. Prophylactic micafungin was administered in all patients. The study period was from January 2015 until April 2016. The PK analysis was performed in the Hospital del Mar, Barcelona, Spain. The trial was authorized by the corresponding Ethics Committees (CEIC Approval Number 17/2014), and Informed Consent of all the patients or their legal representatives was obtained.
# Micafungin was given at a dose of 100mg diluted in 100ml of 0.9% saline in a 60-minute infusion always protected from light to prevent degradation. Five mL blood samples were taken, protected from light, on days 1 and 4 of the treatment with micafungin. The samples were taken through an access point before and after the oxygenation membrane (input and output, respectively). The extraction times for the calculation of complete PK curves were as follows: before the administration of the drug (trough or zero time); immediately after intravenous infusion (1-hour peak or end-of-infusion peak); and 3, 5, 8, 18 and 24 hours after the beginning of the infusion. Samples were centrifuged at a speed of 1,000g for ten minutes at 4 °C. The supernatant plasma was aliquoted into volumes of 150µl that were frozen at -80 °C until they were to be analyzed. The measurement of the total micafungin concentration (free plus protein-bound fractions) was performed by means of a high-performance liquid chromatography technique.
# The following PK parameters were calculated: area under the curve (AUC), CL, Vd and plasma half-life time (t/2) with a noncompartmental PK data analysis using a nonparametric method: the Mann-Whitney test and the Wilcoxon signed-rank test (paired test, in consecutive days). For precision analysis, confidence intervals were calculated by bootstrapping with 1,000 repetitions using the method […] (BCa).
# The calculation of the differences in the concentration of micafungin at the input (Cin) and output (Cout) of the oxygenator membrane allowed us to calculate the oxygenator’s degree of extraction. It should be remembered that there may be losses of micafungin in tubes and cannula and in the centrifugal pump.
# Only continuous epidemiological and clinical data are presented as the mean and standard deviation (SD), and categorical data are presented as absolute numbers because of the small sample size. The rest of the parameters, including Cmin and Cmax, are presented as medians.
# [2] = ECMO patients vs non-ECMO patients; hemodialysis was used in 4 patients; cited from earlier work
# Text: Adsorption by the hemoﬁlter appears to be the most likely explanation when this is in line with an ECMO system. In an “ex vivo” study, the recovery of micafungin was 91% when the in-line hemofilter was removed.
# candidemia = assay: Candidemia in patients on ECMO receiving prophylactic micafungin; assay type: in vivo, human; settings: prophylactic micafungin 100mg, 12 adult ECMO patients
# Procedure: as §1
# [3] = set-up: method as in PMID 25947367; settings: daily dose of 100mg, cited from earlier work
# Candida albicans = tested on: Candida albicans; set-up: method as in PMID 24153129, PMID 21300835; settings: published for Candida albicans; cited from earlier work
smiles,measurement,setting,value
"CCCCCOc1ccc(-c2cc(-c3ccc(C(=O)N[C@H]4C[C@@H](O)[C@@H](O)NC(=O)[C@@H]5[C@@H](O)[C@@H](C)CN5C(=O)[C@H]([C@H](O)CC(N)=O)NC(=O)[C@H]([C@H](O)[C@@H](O)c5ccc(O)c(OS(=O)(=O)O)c5)NC(=O)[C@@H]5C[C@@H](O)CN5C(=O)[C@H]([C@@H](C)O)NC4=O)cc3)no2)cc1 [micafungin] (X1-[Orn(4R-OH,5R-OH)]T[Hyp][hTyr(3S-OH,4S-OH,3'-OSO3H)][Gln(3R-OH)][Pro(3S-OH,4S-Me)]; lactam 1-C)",Cmin out,"[1]; Table 2, day 1, after membrane, 100mg iv, ECMO patients, plasma HPLC, median",1410 ng/mL
same,CL in,"[1]; Table 2, day 1, before membrane, 100mg iv, ECMO patients, noncompartmental, median",1.07 L/h
same,Cmin in,"[1]; Table 2, day 1, before membrane, 100mg iv, ECMO patients, plasma HPLC, median",1410 ng/mL
same,Cmin out,"[1]; Table 2, day 4, after membrane, 100mg iv, ECMO patients, plasma HPLC, median",1750 ng/mL
same,Cmin in,"[1]; Table 2, day 4, before membrane, 100mg iv, ECMO patients, plasma HPLC, median",1800 ng/mL
same,AUCin on day one,"[1]; adult ECMO patients, 100mg 60-minute iv infusion, day 1, sample before the membrane, plasma total concentration by HPLC, noncompartmental, 95%CI 52.8 - 73.4, 10 patients",62100 ng·h/mL
same,AKI AUCout,"[1]; day 1, ECMO patients with acute kidney injury, after membrane, 100mg iv, p = 0.71",69.3 p = 0.71
same,Hepatic failure AUCout,"[1]; day 1, ECMO patients with hepatic failure, after membrane, 100mg iv, p = 0.91",61.6 p = 0.91
same,AKI AUCout,"[1]; day 4, ECMO patients with acute kidney injury, after membrane, 100mg iv, p = 0.88",106.7 p = 0.88
same,Hepatic failure AUCout,"[1]; day 4, ECMO patients with hepatic failure, after membrane, 100mg iv, p = 0.68",85.2 p = 0.68
same,concentration difference between samples before the membrane (C in) and after the membrane (C out),"[1]; first day of treatment, 100mg iv, ECMO patients, figure 1A",did not show any concentration difference
same,concentration difference between samples before the membrane (Cin) and after the membrane (Cout),"[1]; fourth day of treatment, 100mg iv, ECMO patients, figure 1B",did not show any concentration difference
same,clearance,"[1]; plasma, iv, 100 mg, Table 2, day 1, after membrane, 100mg iv, ECMO patients, noncompartmental, median, read-out: CL out (converted)",16.5 mL/min
same,Vd,"[1]; plasma, iv, 100 mg, Table 2, day 1, after membrane, 100mg iv, ECMO patients, noncompartmental, median, read-out: Vd out",27.2 L
same,Cmax,"[1]; plasma, iv, 100 mg, Table 2, day 1, after membrane, 100mg iv, ECMO patients, plasma HPLC, median, read-out: Cmax out",4950 ng/mL
same,AUC,"[1]; plasma, iv, 100 mg, Table 2, day 1, after membrane, 100mg iv, ECMO patients, plasma HPLC, noncompartmental, median, read-out: AUC out",54100 ng·h/mL
same,Vd,"[1]; plasma, iv, 100 mg, Table 2, day 1, before membrane, 100mg iv, ECMO patients, noncompartmental, median, read-out: Vd in",28.6 L
same,Cmax,"[1]; plasma, iv, 100 mg, Table 2, day 1, before membrane, 100mg iv, ECMO patients, plasma HPLC, median, read-out: Cmax in",5850 ng/mL
same,clearance,"[1]; plasma, iv, 100 mg, Table 2, day 4, after membrane, 100mg iv, ECMO patients, noncompartmental, median, read-out: CL out (converted)",12.8 mL/min
same,Vd,"[1]; plasma, iv, 100 mg, Table 2, day 4, after membrane, 100mg iv, ECMO patients, noncompartmental, median, read-out: Vd out",18.1 L
same,Cmax,"[1]; plasma, iv, 100 mg, Table 2, day 4, after membrane, 100mg iv, ECMO patients, plasma HPLC, median, read-out: Cmax out",6750 ng/mL
same,AUC,"[1]; plasma, iv, 100 mg, Table 2, day 4, after membrane, 100mg iv, ECMO patients, plasma HPLC, noncompartmental, median, read-out: AUC out",81000 ng·h/mL
same,clearance,"[1]; plasma, iv, 100 mg, Table 2, day 4, before membrane, 100mg iv, ECMO patients, noncompartmental, median, read-out: CL in (converted)",11.8 mL/min
same,Vd,"[1]; plasma, iv, 100 mg, Table 2, day 4, before membrane, 100mg iv, ECMO patients, noncompartmental, median, read-out: Vd in",16.1 L
same,Cmax,"[1]; plasma, iv, 100 mg, Table 2, day 4, before membrane, 100mg iv, ECMO patients, plasma HPLC, median, read-out: Cmax in",12200 ng/mL
same,AUC,"[1]; plasma, iv, 100 mg, Table 2, day 4, before membrane, 100mg iv, ECMO patients, plasma HPLC, noncompartmental, median, read-out: AUC in",88800 ng·h/mL
same,AUC,"[1]; plasma, iv, 100 mg, day 1, ECMO patients without acute kidney injury, after membrane, 100mg iv, read-out: No AKI AUCout",61900 ng·h/mL
same,AUC,"[1]; plasma, iv, 100 mg, day 1, ECMO patients without hepatic failure, after membrane, 100mg iv, read-out: No hepatic failure AUCout",66100 ng·h/mL
same,AUC,"[1]; plasma, iv, 100 mg, day 4, ECMO patients without acute kidney injury, after membrane, 100mg iv, read-out: No AKI AUCout",95100 ng·h/mL
same,AUC,"[1]; plasma, iv, 100 mg, day 4, ECMO patients without hepatic failure, after membrane, 100mg iv, read-out: No hepatic failure AUCout",117000 ng·h/mL
same,AUC,"[1]; adult ECMO patients, 100mg 60-minute iv infusion, day 1, sample after the membrane, plasma HPLC, noncompartmental, 95%CI 52.4 - 76.7, 10 patients, read-out: AUCout on day one",63400 ng·h/mL
same,reduction in the AUC in the ECMO group versus non-ECMO control group,[2],23%
same,candidemia in patients on ECMO who received prophylactic micafungin,candidemia,No candidemia was observed
same,AUC after a daily dose of 100mg in ICU patients,[3]; ICU patients (without ECMO),78.6 mg·h/L
same,AUC after a daily dose of 100mg in healthy adults,[3]; healthy adults,132.6 mg·h/L
same,MIC90,Candida albicans,0.03 µg/mL
